# Test results reported in US9980943B2, “Methods of treating muscular dystrophy” (BOARD OF REGENTS OF THE NEVADA SYSTEM OF HIGHER EDUCATION, …, priority 2013, dated 2018).
# Key:
# Assay type in all cases: cell-based, mouse
# [1] = system: β-galactosidase in CMV-LacZ C2C12 myotubes; test: CMV-LacZ secondary screen in C2C12 myotubes (β-Gal stabilizing assay); conditions: for CMV-LACZ in Myotubes, value relative to DMSO: SU9516 analogs, C2C12 CMV-LacZ, N=2; for CMV-LACZ in Myotubes, signal relative to DMSO: C2C12 CMV-LacZ myotubes, fold relative to DMSO
# Outline: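 β-gal stabilization was measured in C2C12 myoblasts or myotubes stably transfected with a CMV-driven LacZ construct, using the FDG β-gal assay. Compounds were tested in dose-response at 0.5, 1, 5, 10, 20 and 40 μM, with two replicates per point.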
# [2] = system: α7 integrin (LacZ reporter in α7βgal+/− myoblasts); test: Myoblast α7+/LacZ integrin FDG assay (Burkin assay in myoblasts, 96-well); conditions: 96-well; for Burkin Assay in Myoblasts, value relative to DMSO: SU9516 analogs, N=3-6; for Burkin Assay in Myoblasts, signal relative to DMSO: α7+/LacZ myoblasts
# [3] = system: α7 integrin (LacZ reporter in α7+/LacZ myotubes); test: Myotube α7 integrin FDG assay (Burkin assay in myotubes, 96-well); conditions: for Burkin Assay in Myotubes, value relative to DMSO: SU9516 analogs, 96-well, N=3-6
# [4] = system: β-galactosidase in CMV-LacZ C2C12 myoblasts; test: CMV-LacZ secondary screen in C2C12 myoblasts (β-Gal stabilizing assay); conditions: for CMV-LACZ in Myoblasts, value relative to DMSO: SU9516 analogs, C2C12 CMV-LacZ, N=2; for CMV-LACZ in Myoblasts (β-galactosidase activity relative to DMSO): CMV-LacZ C2C12 myoblasts
# Outline: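 CMV-LacZ C2C12 line (clonal, FDG-screened); myoblasts/myotubes dosed 0.5–40 μM (0.5, 1, 5, 10, 20, 40 μM); n=2 per point; β-gal stabilization read-out.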
smiles,measurement,setting,value
CCO/C(C)=C1\C(=O)Nc2ccccc21 [MLS000554109-01],"CMV-LACZ in Myotubes, value relative to DMSO",[1]; 0.5 uM,1.2682
same,"CMV-LACZ in Myotubes, value relative to DMSO",[1]; 1 uM,0.9491
same,"CMV-LACZ in Myotubes, value relative to DMSO",[1]; 5 uM,1.1559
same,"CMV-LACZ in Myotubes, value relative to DMSO",[1]; 10 uM,1.1355
same,"CMV-LACZ in Myotubes, value relative to DMSO",[1]; 20 uM,0.9100
same,"CMV-LACZ in Myotubes, value relative to DMSO",[1]; 40 uM,0.9950
same,"Burkin Assay in Myoblasts, value relative to DMSO",[2]; 0.5 uM,0.9929
same,"Burkin Assay in Myoblasts, value relative to DMSO",[2]; 1 uM,1.049
same,"Burkin Assay in Myoblasts, value relative to DMSO",[2]; 5 uM,1.067
same,"Burkin Assay in Myoblasts, value relative to DMSO",[2]; 10 uM,1.095
same,"Burkin Assay in Myoblasts, value relative to DMSO",[2]; 20 uM,0.9611
same,"Burkin Assay in Myoblasts, value relative to DMSO",[2]; 40 uM,0.8937
same,"Burkin Assay in Myotubes, value relative to DMSO",[3]; 0.5 uM,0.8839
same,"Burkin Assay in Myotubes, value relative to DMSO",[3]; 1 uM,1.054
same,"Burkin Assay in Myotubes, value relative to DMSO",[3]; 5 uM,0.9611
same,"Burkin Assay in Myotubes, value relative to DMSO",[3]; 10 uM,0.9874
same,"Burkin Assay in Myotubes, value relative to DMSO",[3]; 20 uM,0.8426
same,"Burkin Assay in Myotubes, value relative to DMSO",[3]; 40 uM,1.048
same,"CMV-LACZ in Myoblasts, value relative to DMSO",[4]; 0.5 uM,1.1083
same,"CMV-LACZ in Myoblasts, value relative to DMSO",[4]; 1 uM,1.1863
same,"CMV-LACZ in Myoblasts, value relative to DMSO",[4]; 5 uM,0.9003
same,"CMV-LACZ in Myoblasts, value relative to DMSO",[4]; 10 uM,0.9457
same,"CMV-LACZ in Myoblasts, value relative to DMSO",[4]; 20 uM,0.9853
same,"CMV-LACZ in Myoblasts, value relative to DMSO",[4]; 40 uM,0.9650
Cl.O=C1C2CCCN2C(=O)N1CCCN1CCN(c2cccc(Br)c2)CC1 (stereo not drawn) [MLS001180929-01],"CMV-LACZ in Myotubes, signal relative to DMSO",[1]; 0.5 uM,0.8848
same,"CMV-LACZ in Myotubes, signal relative to DMSO",[1]; 1 uM,0.7876
same,"CMV-LACZ in Myotubes, signal relative to DMSO",[1]; 5 uM,1.0533
same,"CMV-LACZ in Myotubes, signal relative to DMSO",[1]; 10 uM,1.0084
same,"CMV-LACZ in Myotubes, signal relative to DMSO",[1]; 20 uM,1.1347
same,"CMV-LACZ in Myotubes, signal relative to DMSO",[1]; 40 uM,1.0274
same,"Burkin Assay in Myoblasts, signal relative to DMSO",[2]; 0.5 uM,1.077
same,"Burkin Assay in Myoblasts, signal relative to DMSO",[2]; 1 uM,1.0555
same,"Burkin Assay in Myoblasts, signal relative to DMSO",[2]; 5 uM,1.05
same,"Burkin Assay in Myoblasts, signal relative to DMSO",[2]; 10 uM,1.05
same,"Burkin Assay in Myoblasts, signal relative to DMSO",[2]; 20 uM,1.102
same,"Burkin Assay in Myoblasts, signal relative to DMSO",[2]; 40 uM,1.1941
same,"Burkin Assay in Myotubes, α7 integrin LacZ reporter signal relative to DMSO",[3]; 0.5 uM,0.899
same,"Burkin Assay in Myotubes, α7 integrin LacZ reporter signal relative to DMSO",[3]; 1 uM,0.9256
same,"Burkin Assay in Myotubes, α7 integrin LacZ reporter signal relative to DMSO",[3]; 5 uM,0.9643
same,"Burkin Assay in Myotubes, α7 integrin LacZ reporter signal relative to DMSO",[3]; 10 uM,1.03
same,"Burkin Assay in Myotubes, α7 integrin LacZ reporter signal relative to DMSO",[3]; 20 uM,0.8659
same,"Burkin Assay in Myotubes, α7 integrin LacZ reporter signal relative to DMSO",[3]; 40 uM,1.135
same,CMV-LACZ in Myoblasts (β-galactosidase activity relative to DMSO),[4]; 0.5 uM,0.8571
same,CMV-LACZ in Myoblasts (β-galactosidase activity relative to DMSO),[4]; 1 uM,0.9288
same,CMV-LACZ in Myoblasts (β-galactosidase activity relative to DMSO),[4]; 5 uM,0.8251
same,CMV-LACZ in Myoblasts (β-galactosidase activity relative to DMSO),[4]; 10 uM,0.8753
same,CMV-LACZ in Myoblasts (β-galactosidase activity relative to DMSO),[4]; 20 uM,0.9811
same,CMV-LACZ in Myoblasts (β-galactosidase activity relative to DMSO),[4]; 40 uM,0.6163
